For test [1], the target named is arginine vasopressin V2 receptor (Oryctolagus cuniculus, UniProt G1TA00). Nature of the test: V2 receptor binding assay ([3H]-Arg-vasopressin, rabbit renal medulla membrane). To be noted: for Binding activity on arginine vasopressin V2 receptor (pKi): rabbit renal medulla membrane, [3H]-Arg-vasopressin 2 nM; for antagonism on V2 receptor (in words): compared with OPC-31260 and OPC-21268.

The target in test [2] is T1, arginine vasopressin V1 receptor (Rattus norvegicus, UniProt P30560).
T1 construct: A rat liver membrane sample was prepared; from tissue; host or cells: rat liver membranes
Nature of the test: V1 receptor binding assay ([3H]-Arg-vasopressin, rat liver membrane). To be noted: for antagonism on V1 receptor (in words): compared with OPC-31260 and OPC-21268; for V1 selectivity (in words): V1 versus V2 receptor binding; for V1 receptor antagonism compared with OPC-21268 (in words): versus OPC-21268. The method, then:
(1) V1 receptor binding assay
A rat liver membrane sample was prepared in accordance with the method of Nakamura et al. (J. Biol. Chem., 258, 9283 (1983)), and [^3 H]-Arg-vasopressin (2 nM, specific activity=75.8 Ci/mmol), 70 μg of the membrane sample and each drug to be tested (10^-8 to 10^-4 M) were incubated at 30° C. for 30 minutes in 250 μl of 100 mM Tris-HCl buffer (pH=8.0) containing 5 mM of magnesium chloride, 1 mM of ethylenediaminetetraacetic acid (EDTA) and 0.1% of bovine serum albumin (BSA). Thereafter, the incubation solution was sucked off using a cell harvester and free ligand and excess buffer were removed by passing the reaction mixture through a glass filter (GF/B), thereby trapping receptor-bound labeled ligand on the glass filter. The glass filter was taken out, thoroughly dried and then mixed with a liquid scintillation cocktail, and the amount of the membrane-bound [^3 H]-vasopressin was measured using a liquid scintillation counter to calculate the inhibition ratio by the following formula. [formula] C1 : amount of [^3 H]-vasopressin bound to the membrane in the coexistence of known amount of each drug to be tested and [^3 H]-vasopressin
C0 : amount of [^3 H]-vasopressin bound to the membrane when the drug to be tested was not added
B1 : amount of [^3 H]-vasopressin bound to the membrane in the presence of excess vasopressin (10^-6 M)
[formula] [L]: concentration of radioactive ligand KD: dissociation constant calculated from Scatchard plot
Negative logarithm of the thus calculated Ki value was used as pKi value.

Where [3] appears, read: rat liver membrane, [3H]-Arg-vasopressin 2 nM, 30° C., 30 minutes, pH 8.0, read-out: Binding activity on arginine vasopressin V1 receptor (pKi) (converted).

Consider 18 molecules from patent US5710150A, “Benzazepine derivative, pharmaceutical composition thereof, and intermediate thereof” (Yamanouchi Pharmaceutical Co., Ltd., priority 1993, dated 1998).

Where a name gives a salt, the structure may show the parent alone. Read-outs that look alike come from different tables or passages of the source.

T1 sequence (P30560 whole entry): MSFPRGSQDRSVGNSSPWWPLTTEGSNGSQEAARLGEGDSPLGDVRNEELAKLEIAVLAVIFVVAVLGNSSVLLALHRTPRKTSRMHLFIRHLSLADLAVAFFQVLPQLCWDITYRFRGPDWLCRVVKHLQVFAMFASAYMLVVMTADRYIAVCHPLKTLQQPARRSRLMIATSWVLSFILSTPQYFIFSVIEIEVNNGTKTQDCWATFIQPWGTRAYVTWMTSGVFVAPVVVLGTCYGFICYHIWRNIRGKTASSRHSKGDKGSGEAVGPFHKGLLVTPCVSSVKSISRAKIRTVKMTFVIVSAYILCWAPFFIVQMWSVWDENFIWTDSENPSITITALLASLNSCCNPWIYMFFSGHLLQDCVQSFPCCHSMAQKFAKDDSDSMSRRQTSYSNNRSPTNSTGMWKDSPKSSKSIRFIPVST
Sequence of arginine vasopressin V2 receptor (G1TA00 78-446): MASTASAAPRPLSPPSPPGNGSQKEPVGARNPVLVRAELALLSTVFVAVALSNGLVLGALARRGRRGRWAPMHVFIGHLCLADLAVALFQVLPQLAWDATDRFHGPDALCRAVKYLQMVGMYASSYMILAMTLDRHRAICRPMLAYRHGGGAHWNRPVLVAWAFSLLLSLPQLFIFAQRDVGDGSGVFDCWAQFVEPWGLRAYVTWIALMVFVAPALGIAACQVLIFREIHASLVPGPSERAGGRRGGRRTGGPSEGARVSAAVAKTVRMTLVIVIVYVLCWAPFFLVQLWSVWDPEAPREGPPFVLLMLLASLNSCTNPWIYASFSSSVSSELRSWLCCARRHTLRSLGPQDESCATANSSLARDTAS

Take `O=C(/C=C1/c2ccccc2N(C(=O)c2ccc(NC(=O)c3ccccc3-c3ccccc3)cc2)CCC1(F)F)NCCO` [Example 134, (Z)-4'-[[4,4-difluoro-5-[N-(2-hydroxyethyl)carbamoylmethylene]-4,4-difluoro-2,3,4,5-tetrahydro-1H-1-benzazepin-1-yl]carbonyl]-2-phenylbenzanilide]: the “Binding activity on arginine vasopressin V2 receptor (pKi)” value in test [1] came out at 8.94. Moreover, in test [2] (rat liver membrane, [3H]-Arg-vasopressin 2 nM, 30° C., 30 minutes, pH 8.0), the “Binding activity on arginine vasopressin V1 receptor (pKi)” value is 9.50.
In the case of `COCCNC(=O)/C=C1/c2ccccc2N(C(=O)c2ccc(NC(=O)c3ccccc3-c3ccccc3)cc2)CCC1(F)F` [Example 135, (Z)-4'-[[4,4-difluoro-5-[N-(2-methoxyethyl)carbamoylmethylene]-2,3,4,5-tetrahydro-1H-1-benzazepin-1-yl]carbonyl]-2-phenylbenzanilide], the “Binding activity on arginine vasopressin V2 receptor (pKi)” value in test [1] was found to be 8.11. Also, the Ki in test [2] (setting [3]) is 0.195 nM.
As for `CN1CCN(C/C=C2/c3ccccc3N(C(=O)c3ccc(NC(=O)c4ccccc4-c4ccccc4)cc3)CCC2(F)F)CC1.Cl.Cl` [Example 80, (Z)-4'-[[4,4-difluoro-5-[2-(4-methyl-1-piperazinyl)ethylidene]-2,3,4,5-tetrahydro-1H-1-benzazepin-1-yl]carbonyl]-2-phenylbenzanilide dihydrochloride], the “Binding activity on arginine vasopressin V2 receptor (pKi)” value in test [1] came to 8.50. In test [2] (setting [3]), the Ki was 0.363 nM.
Take `Cc1cccc(-c2ccccc2C(=O)Nc2ccc(C(=O)N3CCC(F)(F)/C(=C\C(=O)N4CCN(C)CC4)c4ccccc43)cc2)c1.Cl` [Example 19, (Z)-4'-[[4,4-difluoro-5-(4-methyl-1-piperazinyl)carbonylmethylene-2,3,4,5-tetrahydro-1H-1-benzazepin-1-yl]carbonyl]-2-(3-methylphenyl)benzanilide hydrochloride]: the “Binding activity on arginine vasopressin V2 receptor (pKi)” value in test [1] amounted to 8.84. The Ki in test [2] (setting [3]) was 2.63 nM.
In the case of `Cl.O=C(Nc1ccc(C(=O)N2CCC(F)(F)/C(=C\C(=O)N3CCNCC3)c3ccccc32)cc1)c1ccccc1-c1ccccc1` [Example 12, (Z)-4'-[[4,4-difluoro-5-[(1piperazinylcarbonyl)methylene]-2,3,4,5-tetrahydro-1H-1-benzazepin-1-yl]carbonyl]-2-phenylbenzanilide hydrochloride], in test [1], the “antagonism on V2 receptor (in words)” value is “excellent antagonisms on both V1 and V2 receptors”; the “Binding activity on arginine vasopressin V2 receptor (pKi)” value is 9.71. The “antagonism on V1 receptor (in words)” value in test [2] was “excellent antagonisms on both V1 and V2 receptors”. The Ki in test [2] (setting [3]) was 0.219 nM.
With `CCNC(=O)/C=C1/c2ccccc2N(C(=O)c2ccc(NC(=O)c3ccccc3-c3ccccc3)cc2)CCC1(F)F` [Example 123, (Z)-4'-[[5-(N-ethylcarbamoylmethylene)-4,4-difluoro-2,3,4,5-tetrahydro-1H-1-benzazepin-1-yl]carbonyl]-2-phenylbenzanilide], in test [1], the “Binding activity on arginine vasopressin V2 receptor (pKi)” value is 9.16. In addition, in test [2] (setting [3]), the Ki is 0.2 nM.
As for `CN(C)CCN(C)C(=O)/C=C1/c2ccccc2N(C(=O)c2ccc(NC(=O)c3ccccc3-c3ccccc3)cc2)CCC1(F)F` [Example 15, (Z)-4'-[4,4-difluoro-5-[[N-(2-dimethylaminoethyl)-N-methylcarbonylmethylene]-2,3,4,5-tetrahydro-1H-1-benzazepin-1-yl]carbonyl]-2-phenylbenzanilide hydrochloride], in test [1], the “antagonism on V2 receptor (in words)” value was “excellent antagonisms on both V1 and V2 receptors”; the “Binding activity on arginine vasopressin V2 receptor (pKi)” value stood at 9.13. In test [2], the “antagonism on V1 receptor (in words)” value was “excellent antagonisms on both V1 and V2 receptors”. The Ki in test [2] (setting [3]) is 0.162 nM.
Regarding `Cc1ccsc1C(=O)Nc1ccc(C(=O)N2CCC(F)(F)/C(=C\C(=O)N3CCC(N(C)C)CC3)c3ccccc32)cc1` [Example 111, (Z)-N-[4-[[4,4-difluoro-5-[[(4-dimethylaminopiperidino)carbonyl]methylene]-2,3,4,5-tetrahydro-1H-1-benzazepin-1-yl]carbonyl]phenyl]-3-methylthiophene-2-carboxyamide hydrochloride], the “Binding activity on arginine vasopressin V2 receptor (pKi)” value in test [1] is 7.79. In addition, the Ki in test [2] was 0.562 nM.
Turning to `CN1CCC(N(C)C(=O)/C=C2/c3ccccc3N(C(=O)c3ccc(NC(=O)c4ccccc4-c4ccccc4)cc3)CCC2(F)F)CC1` [Example 84, (Z)-4'-[[4,4-difluoro-5-[[N-methyl-N-(1-methyl-4-piperidyl)carbamoyl]methylene]-2,3,4,5-tetrahydro-1H-1-benzazepin-1-yl]carbonyl]-2-phenylbenzanilidehydrochloride], the Ki in test [2] (setting [3]) was 0.102 nM.
In the case of `CCc1nccn1-c1ccccc1C(=O)Nc1ccc(C(=O)N2CCC(F)(F)/C(=C\C(=O)OC)c3ccccc32)cc1` [Example 42, methyl (Z)-[1-[4-[2-(2-ethyl-1H-imidazol-1yl)benzoyl]amino]benzoyl-4,4-difluoro-2,3,4,5-tetrahydro-1H-1-benzazepin-5-ylidene]acetate], the “Binding activity on arginine vasopressin V2 receptor (pKi)” value in test [1] amounted to 6.33. Besides, in test [2], the “V1 selectivity (in words)” value is reported as “excellent in V1 selectivity” and the “V1 receptor antagonism compared with OPC-21268 (in words)” value is on record as “markedly stronger V1 receptor antagonism than that of OPC-21268”. In addition, the Ki in test [2] (setting [3]) was 1.15 nM.
For the molecule `CNC(=O)/C=C1/c2ccccc2N(C(=O)c2ccc(NC(=O)c3ccccc3-c3ccccc3)cc2)CCC1(F)F` [Example 122, (Z)-4'-[[4,4-difluoro-5-(N-methylcarbamoylmethylene)-2,3,4,5-tetrahydro-1H-1-benzazepin-1-yl]carbonyl]-2-phenylbenzanilide], in test [1], the “Binding activity on arginine vasopressin V2 receptor (pKi)” value was 8.94. For the same molecule, in test [2] (setting [3]), the Ki is 0.355 nM.
For the molecule `CCc1nccn1-c1ccccc1C(=O)Nc1ccc(C(=O)N2CCC(F)(F)/C(=C\C(=O)NC3CC3)c3ccccc32)cc1` [Example 105, (Z)-4'-[[5-[(N-cyclopropylcarbamoyl)methylene]-4,4-difluoro-2,3,4,5-tetrahydro-1H-1-benzazepin-1-yl]carbonyl]-2-(2-ethyl-1H-imidazol-1-yl) benzanilide], the “Binding activity on arginine vasopressin V2 receptor (pKi)” value in test [1] was found to be 6.81. In test [2], the “V1 selectivity (in words)” value is recorded as “excellent in V1 selectivity” and the “V1 receptor antagonism compared with OPC-21268 (in words)” value is “markedly stronger V1 receptor antagonism than that of OPC-21268”. Moreover, the Ki in test [2] (setting [3]) is 0.339 nM.
As to `Cc1ccccc1CC(=O)Nc1ccc(C(=O)N2CCC(F)(F)/C(=C\C(=O)N3CCC(N(C)C)CC3)c3ccccc32)cc1` [Example 106, hydrochloride], the “Binding activity on arginine vasopressin V2 receptor (pKi)” value in test [1] was determined as 8.24. In addition, the Ki in test [2] (setting [3]) is 1.12 nM.
On to `CCc1nccn1-c1ccccc1C(=O)Nc1ccc(C(=O)N2CCC(F)(F)/C(=C\C(=O)NC)c3ccccc32)cc1` [Example 104, (Z)-2-(2-ethyl-1H-imidazol-1-yl)-4'-[[4,4-difluoro-5-[(N-methylcarbamoyl)methylene]-2,3,4,5-tetrahydro-1H-1-benzazepin-1-yl]carbonyl]benzanilide], for which the “Binding activity on arginine vasopressin V2 receptor (pKi)” value in test [1] worked out at 6.68. Also, in test [2], the “V1 selectivity (in words)” value was “excellent in V1 selectivity” and the “V1 receptor antagonism compared with OPC-21268 (in words)” value is “markedly stronger V1 receptor antagonism than that of OPC-21268”. For the same molecule, in test [2] (setting [3]), the Ki is 0.977 nM.
In the case of `CN(C)C1CCN(C(=O)/C=C2/c3ccccc3N(C(=O)c3ccc(NC(=O)c4cccc(Cl)c4)cc3)CCC2(F)F)CC1.Cl` [Example 96, (Z)-3-chloro-4'-[[4,4-difluoro-5-[[(4-dimethylaminopiperidino)carbonyl]methylene]-2,3,4,5-tetrahydro-1H-1-benzazepin-1-yl]carbonyl]benzanilide hydrochloride], in test [1], the “Binding activity on arginine vasopressin V2 receptor (pKi)” value is 8.13. In addition, in test [2] (setting [3]), the Ki was 2 nM.
For `O=C(/C=C1/c2ccccc2N(C(=O)c2ccc(NC(=O)c3ccccc3-c3ccccc3)cc2)CCC1(F)F)NC1CC1` [Example 126], the “Binding activity on arginine vasopressin V2 receptor (pKi)” value in test [1] came out at 8.22. Further, in test [2] (setting [3]), the Ki is 0.288 nM.
Turning to `O=C(Nc1ccc(C(=O)N2CCC(F)(F)/C(=C\C(=O)N3CCC(N4CCCCC4)CC3)c3ccccc32)cc1)c1ccccc1-c1ccccc1` [Example 83, (Z)-4'-[[4,4-difluoro-5-[[(4-piperidinopiperidino)carbonyl]piperidyl)carbamoyl]methylene]-2,3,4,5-tetrahydro-1H-1-benzazepin-1-yl]carbonyl]-2-phenylbenzanilide hydrochloride], the “Binding activity on arginine vasopressin V2 receptor (pKi)” value in test [1] was determined as 8.47. In addition, in test [2] (setting [3]), the Ki was 0.234 nM.
As to `CN(C)C1CCN(C(=O)/C=C2/c3ccccc3N(C(=O)c3ccc(NC(=O)c4cccn4C)cc3)CCC2(F)F)CC1` [Example 110, (Z)-N-[4-[[4,4-difluoro-5-[[(4-dimethylaminopiperidino)carbonyl]methylene]-2,3,4,5-tetrahydro-1H-1-benzazepin-1-yl]carbonyl]phenyl]-1-methylpyrrole-2-carboxyamide hydrochloride], in test [1], the “Binding activity on arginine vasopressin V2 receptor (pKi)” value stood at 7.75. The molecule further showed a Ki in test [2] of 0.398 nM.
